# From ChEMBL document CHEMBL4304741, “Modification and Biological Evaluation of a Series of 1,5-Diaryl-1,2,4-triazole Compounds as Novel Agents against Pancreatic Cancer Metastasis through Targeting Myoferlin” (J Med Chem, 2019)
# Activity calls are given as the source filed them. The rule behind the calls is not given here.
# Columns and labels:
# [1] = Cytotoxicity against HAF cells assessed as reduction in cell viability measured after 48 hrs by MTS assay; assay type: cell-based; settings: Homo sapiens
# Myoferlin [2] = target: T1, Myoferlin (Homo sapiens, UniProt Q9NZM1); assay: Inhibition of MYOF in human PANC1 cells assessed as reversal of epithelial-mesenchymal transition by measuring down regulation of fibronectin expression up to 400 nM by Western blot analysis; assay type: cell-based
# Myoferlin [3] = target: T1, Myoferlin; assay: Inhibition of MYOF in human PANC1 cells assessed as reduction in MMP2 secretion measured after 24 hrs by SDS-PAGE analysis; assay type: cell-based
# PANC-1 [4] = assay: Effect on dynein expression in human PANC1 cells up to 400 nM by Western blot analysis; assay type: functional, cell-based
# MIA PaCa-2 = assay: Antimigratory activity against human MIAPaCa2 cells measured after 24 hrs in presence of mitomycin C using crystal violet staining by inverted microscopy-based transwell assay; assay type: functional, cell-based
# PANC-1 [5] = assay: Antimigratory activity against MYOF-knockout human PANC1 cells measured after 18 hrs in presence of mitomycin C using crystal violet staining by inverted microscopy-based transwell assay; assay type: functional, cell-based
# Capan-2 [6] = assay: Antimigratory activity against human Capan2 cells measured after 36 hrs in presence of mitomycin C using crystal violet staining by inverted microscopy-based transwell assay; assay type: functional, cell-based
# Myoferlin [7] = target: T1, Myoferlin; assay: Inhibition of MYOF in human PANC1 cells assessed as reduction in MMP1 secretion measured after 24 hrs by SDS-PAGE analysis; assay type: cell-based
# [8] = target: Epidermal growth factor receptor (Homo sapiens) (UniProt P00533); assay: Effect on EGF-stimulated EGFR phosphorylation in MYOF-knockout human PANC1 cells at 400 nM by Western blot analysis
# [9] = Toxicity in Balb/c nude mouse xenografted with PANC1 cells assessed as pathological changes in lung at 25 to 50 mg/kg/day, ip by H and E staining-based microscopic analysis; assay type: organism-based; settings: in vivo
# PANC-1 [10] = assay: Effect on EGFR expression in MYOF-knockout human PANC1 cells up to 400 nM by Western blot analysis; assay type: functional, cell-based
# Myoferlin [11] = target: T1, Myoferlin; assay: Binding affinity to recombinant human GST-tagged MYOF C2 domain (3445 to 3912 residues) expressed in Escherichia coli BL21 (DE3) at 145 uM by STD-NMR analysis
# Myoferlin [12] = target: T1, Myoferlin; assay: Reversible binding affinity to recombinant human GST-tagged MYOF C2 domain (3445 to 3912 residues) expressed in Escherichia coli BL21 (DE3) by surface plasmon resonance analysis
# [13] = Toxicity in Balb/c nude mouse xenografted with PANC1 cells assessed as pathological changes in spleen at 25 to 50 mg/kg/day, ip by H and E staining-based microscopic analysis; assay type: organism-based; settings: in vivo
# Capan-2 [14] = assay: Cytotoxicity against human Capan2 cells assessed as reduction in cell viability measured after 48 hrs by MTS assay; assay type: cell-based; settings: Capan-2, 48 h
# Cytochrome P450 2C9 = Cytochrome P450 2C9 (Homo sapiens, UniProt P11712); assay: Inhibition of CYP2C9 in human liver microsomes using tolbutamide as substrate preincubated for 5 mins followed by NADPH-generating system addition and measured after 20 mins by LC-MS/MS analysis
# [15] = Cytotoxicity against human HPDE6c7 cells assessed as reduction in cell viability measured after 48 hrs by MTS assay; assay type: cell-based; settings: HPDE6c7, 48 h
# PANC-1 [16] = assay: Antimetastatic activity against human PANC1 cells harboring luciferase reporter gene xenografted in Balb/c nude mouse assessed as reduction in lung metastasis burden by measuring reduction in luminescence at 25 mg/kg/day, ip measured every 10 days by bioluminescence imaging analysis relative to control; assay type: functional
# PANC-1 [17] = assay: Effect on E-cadherin expression in MYOF-knockout human PANC1 cells up to 400 nM by Western blot analysis; assay type: functional, cell-based
# PANC-1 [18] = assay: Cytotoxicity against human PANC1 cells assessed as reduction in cell viability at 0.1 to 1 uM measured after 18 hrs by MTS assay; assay type: cell-based; settings: panc-1, 18 h
# Cytochrome P450 2E1 = Cytochrome P450 2E1 (Homo sapiens, UniProt P05181); assay: Inhibition of CYP2E1 in human liver microsomes using chlorzoxazone as substrate preincubated for 5 mins followed by NADPH-generating system addition and measured after 20 mins by LC-MS/MS analysis
# [19] = target: Vascular endothelial growth factor receptor 2 (Homo sapiens) (UniProt P35968); assay: Effect on VEGFR2 phosphorylation in MYOF-knockout human PANC1 cells up to 400 nM by Western blot analysis
# [20] = Toxicity in Balb/c nude mouse xenografted with PANC1 cells assessed as pathological changes in liver at 25 to 50 mg/kg/day, ip by H and E staining-based microscopic analysis; assay type: organism-based; settings: in vivo
# PANC-1 [21] = assay: Antimigratory activity against MYOF-knockout human PANC1 cells transfected with pcDNA3.1-MYOF measured after 18 hrs in presence of mitomycin C using crystal violet staining by inverted microscopy-based transwell assay; assay type: functional, cell-based
# PANC-1 [22] = assay: Antimetastatic activity against human PANC1 cells harboring luciferase reporter gene xenografted in Balb/c nude mouse assessed as mouse survival at 50 mg/kg/day, ip (reference value: 25%); assay type: functional; settings: PANC-1, ip
# T1 sequence (Q9NZM1 whole entry): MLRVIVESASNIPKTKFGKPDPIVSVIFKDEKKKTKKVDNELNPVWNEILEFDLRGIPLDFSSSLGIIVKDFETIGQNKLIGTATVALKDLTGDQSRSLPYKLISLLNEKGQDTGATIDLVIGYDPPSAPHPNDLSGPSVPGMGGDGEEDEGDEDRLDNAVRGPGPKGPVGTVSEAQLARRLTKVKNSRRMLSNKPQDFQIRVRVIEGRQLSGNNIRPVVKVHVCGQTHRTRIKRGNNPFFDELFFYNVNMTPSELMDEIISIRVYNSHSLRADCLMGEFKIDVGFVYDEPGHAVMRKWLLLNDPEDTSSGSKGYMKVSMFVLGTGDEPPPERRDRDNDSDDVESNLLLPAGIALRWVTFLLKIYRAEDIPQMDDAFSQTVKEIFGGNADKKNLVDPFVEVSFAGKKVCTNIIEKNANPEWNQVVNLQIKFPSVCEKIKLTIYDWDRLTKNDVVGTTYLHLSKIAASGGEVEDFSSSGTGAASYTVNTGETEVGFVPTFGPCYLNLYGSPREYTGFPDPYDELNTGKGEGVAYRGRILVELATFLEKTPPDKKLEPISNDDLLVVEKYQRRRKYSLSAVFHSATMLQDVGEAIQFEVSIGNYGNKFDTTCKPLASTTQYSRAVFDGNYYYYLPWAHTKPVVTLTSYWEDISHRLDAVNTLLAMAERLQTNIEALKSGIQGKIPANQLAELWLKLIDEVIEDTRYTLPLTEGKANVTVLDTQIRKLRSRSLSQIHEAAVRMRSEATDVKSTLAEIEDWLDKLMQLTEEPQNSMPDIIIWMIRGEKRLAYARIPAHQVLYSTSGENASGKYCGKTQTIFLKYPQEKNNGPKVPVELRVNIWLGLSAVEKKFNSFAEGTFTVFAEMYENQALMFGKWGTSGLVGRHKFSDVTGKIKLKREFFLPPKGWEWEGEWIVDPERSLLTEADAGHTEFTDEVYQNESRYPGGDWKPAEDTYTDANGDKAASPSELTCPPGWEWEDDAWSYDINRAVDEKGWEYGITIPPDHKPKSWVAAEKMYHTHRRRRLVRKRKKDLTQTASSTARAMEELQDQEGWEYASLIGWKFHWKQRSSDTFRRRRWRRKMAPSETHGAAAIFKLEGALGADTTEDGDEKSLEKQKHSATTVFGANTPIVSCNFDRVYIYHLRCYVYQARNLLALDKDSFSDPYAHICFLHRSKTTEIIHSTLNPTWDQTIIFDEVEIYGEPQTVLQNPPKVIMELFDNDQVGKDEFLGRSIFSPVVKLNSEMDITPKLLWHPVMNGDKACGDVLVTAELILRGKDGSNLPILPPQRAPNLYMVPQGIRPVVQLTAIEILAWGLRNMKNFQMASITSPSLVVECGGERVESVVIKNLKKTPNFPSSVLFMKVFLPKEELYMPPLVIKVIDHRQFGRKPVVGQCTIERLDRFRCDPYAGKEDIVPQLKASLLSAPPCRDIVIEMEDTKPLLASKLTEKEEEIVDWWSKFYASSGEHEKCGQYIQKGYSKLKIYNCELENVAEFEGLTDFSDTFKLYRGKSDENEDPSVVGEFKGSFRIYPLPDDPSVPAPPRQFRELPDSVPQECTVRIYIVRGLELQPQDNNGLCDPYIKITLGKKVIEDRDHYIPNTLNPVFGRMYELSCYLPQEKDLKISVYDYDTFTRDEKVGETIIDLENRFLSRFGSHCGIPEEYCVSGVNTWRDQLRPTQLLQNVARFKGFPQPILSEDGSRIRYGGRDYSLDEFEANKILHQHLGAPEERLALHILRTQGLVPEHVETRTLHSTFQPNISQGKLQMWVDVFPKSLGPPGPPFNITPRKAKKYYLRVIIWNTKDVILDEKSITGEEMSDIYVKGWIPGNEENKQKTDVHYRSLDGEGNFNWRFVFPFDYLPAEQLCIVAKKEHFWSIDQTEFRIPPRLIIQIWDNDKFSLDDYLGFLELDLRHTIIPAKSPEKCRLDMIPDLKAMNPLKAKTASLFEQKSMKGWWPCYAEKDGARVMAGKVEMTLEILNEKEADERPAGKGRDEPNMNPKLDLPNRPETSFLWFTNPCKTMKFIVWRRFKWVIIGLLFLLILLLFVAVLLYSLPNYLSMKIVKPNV
# Epidermal growth factor receptor (Homo sapiens), sequence (P00533 whole entry): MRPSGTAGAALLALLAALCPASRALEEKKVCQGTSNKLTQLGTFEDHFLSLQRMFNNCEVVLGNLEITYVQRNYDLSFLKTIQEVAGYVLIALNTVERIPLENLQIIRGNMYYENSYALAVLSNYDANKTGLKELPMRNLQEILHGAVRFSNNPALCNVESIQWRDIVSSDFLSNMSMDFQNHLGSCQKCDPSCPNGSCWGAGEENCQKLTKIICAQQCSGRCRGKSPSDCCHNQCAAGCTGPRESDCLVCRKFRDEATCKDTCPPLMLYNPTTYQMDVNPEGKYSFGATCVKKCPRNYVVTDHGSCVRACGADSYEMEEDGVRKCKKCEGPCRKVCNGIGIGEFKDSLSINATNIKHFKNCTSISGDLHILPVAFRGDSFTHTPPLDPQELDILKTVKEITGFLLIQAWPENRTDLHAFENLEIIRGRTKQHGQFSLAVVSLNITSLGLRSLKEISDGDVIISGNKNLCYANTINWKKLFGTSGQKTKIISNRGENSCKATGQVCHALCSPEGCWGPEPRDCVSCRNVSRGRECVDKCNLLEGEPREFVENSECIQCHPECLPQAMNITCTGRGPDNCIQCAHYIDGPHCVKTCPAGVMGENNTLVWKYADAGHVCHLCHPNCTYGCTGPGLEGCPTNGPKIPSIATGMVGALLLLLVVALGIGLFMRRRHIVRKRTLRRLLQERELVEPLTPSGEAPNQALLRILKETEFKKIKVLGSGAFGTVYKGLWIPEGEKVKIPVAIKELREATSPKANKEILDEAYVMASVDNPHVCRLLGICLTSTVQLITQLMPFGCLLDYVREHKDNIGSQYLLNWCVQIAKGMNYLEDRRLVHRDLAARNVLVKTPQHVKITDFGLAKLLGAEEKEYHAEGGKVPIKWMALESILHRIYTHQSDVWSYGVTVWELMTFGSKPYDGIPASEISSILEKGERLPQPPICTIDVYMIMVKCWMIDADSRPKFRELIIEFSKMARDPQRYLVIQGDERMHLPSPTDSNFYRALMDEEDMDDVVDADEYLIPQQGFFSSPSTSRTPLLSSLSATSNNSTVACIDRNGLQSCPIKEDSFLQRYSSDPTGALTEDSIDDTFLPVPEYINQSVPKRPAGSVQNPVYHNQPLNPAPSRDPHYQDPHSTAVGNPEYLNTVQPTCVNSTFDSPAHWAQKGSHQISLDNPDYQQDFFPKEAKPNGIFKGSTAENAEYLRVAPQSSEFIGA
# Cytochrome P450 2C9, sequence (P11712 whole entry): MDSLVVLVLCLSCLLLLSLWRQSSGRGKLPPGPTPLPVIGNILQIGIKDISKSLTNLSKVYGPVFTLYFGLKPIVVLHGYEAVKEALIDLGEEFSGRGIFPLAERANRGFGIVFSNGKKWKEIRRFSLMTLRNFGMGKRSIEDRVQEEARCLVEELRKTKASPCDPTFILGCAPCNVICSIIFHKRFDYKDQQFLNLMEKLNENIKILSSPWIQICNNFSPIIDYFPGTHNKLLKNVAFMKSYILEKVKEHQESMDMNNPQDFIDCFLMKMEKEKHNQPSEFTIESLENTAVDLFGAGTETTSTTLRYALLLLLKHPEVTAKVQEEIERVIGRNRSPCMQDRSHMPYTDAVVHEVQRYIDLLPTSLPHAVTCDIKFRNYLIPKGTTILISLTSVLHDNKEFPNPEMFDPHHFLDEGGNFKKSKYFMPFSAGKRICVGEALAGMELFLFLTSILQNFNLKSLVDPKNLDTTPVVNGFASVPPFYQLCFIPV
# Cytochrome P450 2E1, sequence (P05181 whole entry): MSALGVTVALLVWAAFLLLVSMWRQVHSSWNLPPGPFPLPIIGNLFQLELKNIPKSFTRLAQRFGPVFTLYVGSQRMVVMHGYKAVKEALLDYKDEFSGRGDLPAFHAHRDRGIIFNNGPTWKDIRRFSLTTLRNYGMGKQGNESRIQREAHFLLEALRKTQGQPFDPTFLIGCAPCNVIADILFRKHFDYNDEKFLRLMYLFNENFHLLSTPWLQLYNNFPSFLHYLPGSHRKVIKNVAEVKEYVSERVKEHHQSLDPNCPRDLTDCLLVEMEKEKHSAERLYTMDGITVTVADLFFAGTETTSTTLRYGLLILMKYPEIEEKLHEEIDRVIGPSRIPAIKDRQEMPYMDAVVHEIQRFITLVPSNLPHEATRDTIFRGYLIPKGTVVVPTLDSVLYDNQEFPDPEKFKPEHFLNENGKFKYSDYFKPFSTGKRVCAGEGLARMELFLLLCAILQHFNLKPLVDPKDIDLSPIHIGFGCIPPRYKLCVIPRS
smiles,measurement,setting,value
CCc1nc(-c2ncc(OC)cn2)n(-c2cccc(C(=O)NCCCCc3ccccc3)c2)n1,IC50,[1],8.54 µM
same,inhibition,Myoferlin [2],Dose-dependent effect
same,inhibition,Myoferlin [3],Dose-dependent effect
same,Activity,PANC-1 [4],inactive
same,Activity,MIA PaCa-2,Dose-dependent effect
same,Activity,PANC-1 [5],inactive
same,Activity,Capan-2 [6],Dose-dependent effect
same,inhibition,Myoferlin [7],Dose-dependent effect
same,Activity,[8],inactive
same,Activity,[9],Non-Toxic
same,Activity,PANC-1 [10],inactive
same,Activity,Myoferlin [11],Active
same,Activity,Myoferlin [12],Dose-dependent effect
same,Kd,Myoferlin [12],0.094 µM
same,Activity,[13],Non-Toxic
same,IC50,Capan-2 [14],2.85 µM
same,IC50,Cytochrome P450 2C9,20.5 µM
same,IC50,[15],14.6 µM
same,fold change (FC),PANC-1 [16],3
same,Activity,PANC-1 [17],inactive
same,Activity,PANC-1 [18],Non-Toxic
same,IC50,Cytochrome P450 2E1,> 50 µM
same,Activity,[19],inactive
same,Activity,[20],Non-Toxic
same,Activity,PANC-1 [21],Active
same,survival at 50 mg/kg/day,PANC-1 [22],87.5%
